Measured values as given in PubChem BioAssay (NCI).
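Protocol summary: plate cells (96-well), add compound at 5 concentrations, incubate 48 h, interpolate endpoints linearly. The concentration for full growth arrest is given as TGI.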

Assays:
Assay in all cases: growth of human tumour cells (NCI), 48 h
[1] = tested on: NCI-H23 lung
[2] = tested on: EKVX NSCLC
[3] = tested on: XF 498 CNS
[4] = tested on: SNB-78 CNS
[5] = tested on: DMS 273 small cell lung
[6] = tested on: NCI-H226 lung
[7] = tested on: NCI-H460 lung
[8] = tested on: SK-MEL-2 melanoma
[9] = tested on: OVCAR-3 ovarian
[10] = tested on: HCC-2998 colon
[11] = tested on: MALME-3M melanoma
[12] = tested on: A498 renal
[13] = tested on: K-562 leukemia
[14] = tested on: LOX IMVI melanoma
[15] = tested on: U251 CNS
[16] = tested on: RXF 393 renal
[17] = tested on: DMS 114 small cell lung
[18] = tested on: SF-295 CNS
[19] = tested on: NCI-H522 lung
[20] = tested on: IGROV1 ovarian
[21] = tested on: SK-MEL-5 melanoma
[22] = tested on: M14 melanoma
[23] = tested on: HL-60(TB) leukemia
[24] = tested on: RPMI-8226 leukemia
[25] = tested on: OVCAR-8 ovarian
[26] = tested on: SF-539 CNS
[27] = tested on: SF-268 CNS
[28] = tested on: SNB-19 CNS
[29] = tested on: SR leukemia
[30] = tested on: DLD-1 colon
[31] = tested on: OVCAR-5 ovarian
[32] = tested on: OVCAR-4 ovarian
[33] = tested on: SK-MEL-28 melanoma
[34] = tested on: M19-MEL melanoma
[35] = tested on: UO-31 renal
[36] = tested on: HCT-116 colon
[37] = tested on: MOLT-4 leukemia
[38] = tested on: SN12C renal
[39] = tested on: CCRF-CEM leukemia
[40] = tested on: UACC-62 melanoma
[41] = tested on: ACHN renal
[42] = tested on: COLO 205 colon
[43] = tested on: KM20L2 colon
[44] = tested on: HT29 colon
[45] = tested on: HOP-92 NSCLC
[46] = tested on: HCT-15 colon
[47] = tested on: UACC-257 melanoma
[48] = tested on: HOP-62 NSCLC
[49] = tested on: SK-OV-3 ovarian
[50] = tested on: 786-0 renal
[51] = tested on: LXFL 529 NSCLC
[52] = tested on: A549 NSCLC
[53] = tested on: TK-10 renal
[54] = tested on: SNB-75 CNS
[55] = tested on: SW-620 colon
[56] = tested on: KM12 colon
[57] = tested on: HOP-18 NSCLC

Work on `NC(CCCCN=Cc1nc(-c2ccccc2)oc1O)C(=O)O` (stereo not given) yielded a TGI [1] greater than 100 µM, a TGI [2] greater than 100 µM and a TGI [3] greater than 100 µM. For the same molecule, the TGI [4] was greater than 100 µM, the TGI [5] was greater than 100 µM and the TGI [6] was greater than 100 µM. It also gave a TGI [7] greater than 100 µM, a TGI [8] greater than 100 µM and a TGI [9] greater than 100 µM. For the same molecule, the TGI [10] was greater than 100 µM, the TGI [11] was greater than 100 µM and the TGI [12] was greater than 100 µM. For the same molecule, the TGI [13] was greater than 100 µM, the TGI [14] was greater than 100 µM and the TGI [15] was greater than 100 µM. For the same molecule, the TGI [16] was greater than 100 µM, the TGI [17] was greater than 100 µM and the TGI [18] was greater than 100 µM. It also gave a TGI [19] greater than 100 µM, a TGI [20] greater than 100 µM and a TGI [21] greater than 100 µM. It also gave a TGI [22] greater than 100 µM, a TGI [23] greater than 100 µM and a TGI [24] greater than 100 µM. It also gave a TGI [25] greater than 100 µM, a TGI [26] greater than 100 µM and a TGI [27] greater than 100 µM. For the same molecule, the TGI [28] was greater than 100 µM, the TGI [29] was greater than 100 µM and the TGI [30] was greater than 100 µM. For the same molecule, the TGI [31] was greater than 100 µM, the TGI [32] was greater than 100 µM and the TGI [33] was greater than 100 µM. The TGI [34] was greater than 100 µM, the TGI [35] was greater than 100 µM and the TGI [36] was greater than 100 µM. It also gave a TGI [37] greater than 100 µM, a TGI [38] greater than 100 µM and a TGI [39] greater than 100 µM. For the same molecule, the TGI [40] was greater than 100 µM, the TGI [41] was greater than 100 µM and the TGI [42] was greater than 100 µM. The TGI [43] was greater than 100 µM, the TGI [44] was greater than 100 µM and the TGI [45] was greater than 100 µM. It also gave a TGI [46] greater than 100 µM, a TGI [47] greater than 100 µM and a TGI [48] greater than 100 µM. For the same molecule, the TGI [49] was greater than 100 µM, the TGI [50] was greater than 100 µM and the TGI [51] was greater than 100 µM. The TGI [52] was greater than 100 µM, the TGI [53] was greater than 100 µM and the TGI [54] was greater than 100 µM. It also gave a TGI [55] greater than 100 µM.
Molecule `CCN(CC)CCC(=O)c1ccccc1` has a TGI [1] of 45.6 µM, a TGI [2] greater than 100 µM and a TGI [5] of 33.5 µM. The TGI [6] was greater than 100 µM, the TGI [7] was 97.8 µM and the TGI [8] was greater than 100 µM. The TGI [9] was 38.8 µM, the TGI [10] was greater than 100 µM and the TGI [14] was 36 µM. The TGI [15] was 47.4 µM, the TGI [16] was 34.7 µM and the TGI [17] was 41.8 µM. For the same molecule, the TGI [20] was greater than 100 µM, the TGI [21] was greater than 100 µM and the TGI [22] was 31.5 µM. For the same molecule, the TGI [23] was 43.9 µM, the TGI [24] was 15.6 µM and the TGI [25] was 58 µM. The TGI [26] was 44.2 µM, the TGI [27] was 40.5 µM and the TGI [28] was greater than 100 µM. The TGI [29] was 35.3 µM, the TGI [56] was greater than 100 µM and the TGI [31] was 40.9 µM. For the same molecule, the TGI [32] was 40.5 µM, the TGI [33] was 33 µM and the TGI [34] was 56.1 µM. For the same molecule, the TGI [35] was 93 µM, the TGI [36] was 31.8 µM and the TGI [37] was 42.2 µM. The TGI [38] was 35.2 µM, the TGI [39] was 36.9 µM and the TGI [41] was 29.7 µM. The TGI [43] was 49.5 µM, the TGI [44] was 70.2 µM and the TGI [45] was 28.5 µM. For the same molecule, the TGI [46] was 38.5 µM, the TGI [47] was 61.4 µM and the TGI [48] was greater than 100 µM. It also gave a TGI [57] of 30.1 µM, a TGI [51] of 32.1 µM and a TGI [52] greater than 100 µM. The TGI [53] was 43.4 µM, the TGI [54] was 38.8 µM and the TGI [55] was 41.1 µM.
